# Compound: CC(C)CCN1c2nc(Nc3cc(F)c(O)c(F)c3)ncc2N(C)C(=O)C1C [BI-D1870]
# Assay: relative viability (nuclei count vs DMSO), 5 days (fraction); higher = more cells survive
# Conditions: 4 µM
# Procedure, shortened: (§1)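 Only plates meeting two conditions passed: control CV below 25% and at least one doubling. Lung cancer cell lines, kept overnight at 37 °C in 1536-well plates, were pinned with five library-drug doses (not always all listed) √10 apart on vehicle-anchored plates and grown 5 days without medium change. A one-step fix, permeabilisation and Hoechst stain preceded 4× imaging and MetaXpress nuclear counting. Viability equals treated-well nuclei divided by vehicle-well nuclei, as the median over plates.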
row,Cell Line,relative viability
1,NCI-H358,0.775
2,NCI-H650,0.836
3,PC-3 [JPC-3],0.951

# Compound: O=c1ncccn1[C@@H]1O[C@H](CO)[C@@H](O)[C@H]1O [Zebularine]
# Assay: as above
# Conditions: 1 µM
# Procedure, shortened: as §1
row,Cell Line,relative viability
1,201T,1.08
2,NCI-H1915,1.04
3,HCC-827,1.08
4,LXF-289,1.06
5,NCI-H23,1.1
6,NCI-H1299,1.02
7,NCI-H647,1.01
8,CAL-12T,1.03
9,NCI-H1651,1.04
10,EPLC-272H,1.14
11,NCI-H2228,1.17
12,NCI-H1792,1.1
13,NCI-H1355,1.06
14,NCI-H3122,1.03
15,NCI-H1437,1.07
16,NCI-H1755,1.12
17,NCI-H2023,1.17
18,HCC-15,1.11
19,NCI-H1793,1.16
20,PC-14,1.18
21,EKVX,1.04
22,LC-2-ad,1.02
23,NCI-H1563,0.966
24,NCI-H1944,0.995
25,NCI-H1975,1
26,RERF-LC-KJ,1.11
27,ABC-1,0.922
28,NCI-H358,0.884
29,NCI-H650,0.956
30,PC-3 [JPC-3],1.07

# Same assay, conditions: 3.162 µM
row,Cell Line,relative viability
1,201T,0.986
2,NCI-H1915,0.932
3,HCC-827,1.03
4,LXF-289,0.889
5,NCI-H23,0.91
6,NCI-H1299,0.97
7,NCI-H647,0.943
8,CAL-12T,0.871
9,NCI-H1651,0.989
10,EPLC-272H,0.577
11,NCI-H2228,1.08
12,NCI-H1792,0.925
13,NCI-H1355,0.955
14,NCI-H3122,0.987
15,NCI-H1437,1
16,NCI-H1755,0.981
17,NCI-H2023,1
18,HCC-15,0.974
19,NCI-H1793,1
20,PC-14,0.694
21,EKVX,0.961
22,LC-2-ad,0.937
23,NCI-H1563,0.969
24,NCI-H1944,1.02
25,NCI-H1975,0.859
26,RERF-LC-KJ,1.03
27,ABC-1,0.724
28,NCI-H358,0.951
29,NCI-H650,0.886
30,PC-3 [JPC-3],1.01

# Same assay, conditions: 10 µM
row,Cell Line,relative viability
1,201T,0.776
2,NCI-H1915,0.821
3,HCC-827,0.851
4,LXF-289,0.931
5,NCI-H23,0.632
6,NCI-H1299,0.858
7,NCI-H647,0.294
8,CAL-12T,0.793
9,NCI-H1651,0.718
10,EPLC-272H,0.558
11,NCI-H2228,0.782
12,NCI-H1792,0.431
13,NCI-H1355,0.749
14,NCI-H3122,0.875
15,NCI-H1437,0.761
16,NCI-H1755,1.02
17,NCI-H2023,0.724
18,HCC-15,0.752
19,NCI-H1793,0.442
20,PC-14,0.19
21,LC-2-ad,0.653
22,NCI-H1563,0.951
23,NCI-H1944,0.788
24,NCI-H1975,0.519
25,RERF-LC-KJ,0.859
26,ABC-1,0.687
27,NCI-H358,0.596
28,NCI-H650,0.611
29,PC-3 [JPC-3],0.711

# Same assay, conditions: 31.62 µM
row,Cell Line,relative viability
1,201T,1
2,NCI-H1915,1.08
3,HCC-827,0.877
4,LXF-289,0.831
5,NCI-H23,0.983
6,NCI-H1299,1.06
7,NCI-H647,0.203
8,CAL-12T,0.993
9,NCI-H1651,0.911
10,EPLC-272H,0.811
11,NCI-H2228,0.8
12,NCI-H1792,0.449
13,NCI-H1355,0.62
14,NCI-H3122,1.01
15,NCI-H1437,0.97
16,NCI-H1755,1.04
17,NCI-H2023,0.613
18,HCC-15,0.906
19,NCI-H1793,0.67
20,PC-14,0.138
21,EKVX,1.03
22,LC-2-ad,0.719
23,NCI-H1563,1.04
24,NCI-H1944,0.947
25,NCI-H1975,0.468
26,RERF-LC-KJ,1.01
27,ABC-1,0.641
28,NCI-H358,0.491
29,NCI-H650,0.496
30,PC-3 [JPC-3],0.868

# Same assay, conditions: 100 µM
row,Cell Line,relative viability
1,201T,0.947
2,NCI-H1915,1.03
3,HCC-827,0.47
4,LXF-289,0.346
5,NCI-H23,0.881
6,NCI-H1299,0.454
7,NCI-H647,0.157
8,CAL-12T,0.671
9,NCI-H1651,0.57
10,EPLC-272H,0.724
11,NCI-H2228,0.486
12,NCI-H1792,0.277
13,NCI-H1355,0.33
14,NCI-H3122,1.04
15,NCI-H1437,0.641
16,NCI-H1755,0.717
17,NCI-H2023,0.287
18,HCC-15,0.497
19,NCI-H1793,0.237
20,PC-14,0.109
21,EKVX,0.985
22,LC-2-ad,0.355
23,NCI-H1563,0.998
24,NCI-H1944,0.718
25,NCI-H1975,0.258
26,RERF-LC-KJ,0.994

# — the supplement of paper PMC10307832
